Results reported in ChEMBL document CHEMBL4630905 (2021).

Tests used:
[1] = molecular target: T1, GABA-A receptor; anion channel (Rattus norvegicus) (UniProt O09028+P15431+P18506+P18508+P19969+P20236+P23574+P23576+P28471+P28473+P30191+P62813+P63079+P63138+Q91ZM7+Q9ES14); details: Compound concentration 10.0 uM
[2] = molecular target: Beta-2 adrenergic receptor (Homo sapiens) (UniProt P07550); details: Compound concentration 10.0 uM
[3] = molecular target: T2, Bromodomain testis-specific protein (Homo sapiens, UniProt Q58F21); assay: BET mutant TR-FRET assay (BRDT BD2)
[4] = molecular target: Beta-3 adrenergic receptor (Homo sapiens) (UniProt P13945); details: Compound concentration 10.0 uM
[5] = molecular target: 5-hydroxytryptamine receptor 1B (Homo sapiens) (UniProt P28222); details: Compound concentration 10.0 uM
Sequence of 5-hydroxytryptamine receptor 1B (Homo sapiens) (P28222 whole entry): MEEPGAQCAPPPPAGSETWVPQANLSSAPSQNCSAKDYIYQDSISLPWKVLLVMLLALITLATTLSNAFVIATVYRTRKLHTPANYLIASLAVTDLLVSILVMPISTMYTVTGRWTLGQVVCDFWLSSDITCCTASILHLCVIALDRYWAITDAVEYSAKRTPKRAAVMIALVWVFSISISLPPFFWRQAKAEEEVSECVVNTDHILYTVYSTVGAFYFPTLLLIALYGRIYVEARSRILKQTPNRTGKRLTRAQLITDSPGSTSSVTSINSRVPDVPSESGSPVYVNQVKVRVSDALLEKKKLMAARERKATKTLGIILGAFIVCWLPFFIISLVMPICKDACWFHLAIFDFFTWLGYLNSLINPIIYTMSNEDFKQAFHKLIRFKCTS

[6] = molecular target: T3, Bromodomain-containing protein 3 (Homo sapiens, UniProt Q15059); assay: BET mutant TR-FRET assay (BRD3 BD2)
T3 sequence (Q15059 2-726 limits assumed, change not shown): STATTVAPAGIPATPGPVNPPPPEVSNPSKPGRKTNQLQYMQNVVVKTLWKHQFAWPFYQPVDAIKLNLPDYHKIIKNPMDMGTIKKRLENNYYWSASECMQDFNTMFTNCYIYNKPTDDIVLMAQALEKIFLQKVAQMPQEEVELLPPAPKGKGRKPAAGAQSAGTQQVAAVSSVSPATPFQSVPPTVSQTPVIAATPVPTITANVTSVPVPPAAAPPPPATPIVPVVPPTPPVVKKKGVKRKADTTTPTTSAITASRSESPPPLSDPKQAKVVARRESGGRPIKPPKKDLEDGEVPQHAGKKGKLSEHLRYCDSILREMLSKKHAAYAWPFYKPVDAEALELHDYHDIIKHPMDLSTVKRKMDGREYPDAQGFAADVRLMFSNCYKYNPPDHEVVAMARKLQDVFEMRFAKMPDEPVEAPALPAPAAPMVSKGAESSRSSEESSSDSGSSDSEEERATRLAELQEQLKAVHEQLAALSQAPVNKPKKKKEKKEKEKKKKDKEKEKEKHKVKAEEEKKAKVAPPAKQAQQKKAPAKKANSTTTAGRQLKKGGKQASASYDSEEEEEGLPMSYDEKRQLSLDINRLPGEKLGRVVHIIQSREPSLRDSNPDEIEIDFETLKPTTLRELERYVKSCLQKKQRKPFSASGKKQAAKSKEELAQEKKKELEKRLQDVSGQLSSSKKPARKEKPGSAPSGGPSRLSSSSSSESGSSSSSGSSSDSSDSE

[7] = molecular target: Beta-1 adrenergic receptor (Homo sapiens) (UniProt P08588); details: Compound concentration 10.0 uM
[8] = molecular target: T2, Bromodomain testis-specific protein; assay: BET mutant TR-FRET assay (BRDT BD1)
[9] = molecular target: 5-hydroxytryptamine receptor 5A (Homo sapiens) (UniProt P47898); details: Compound concentration 10.0 uM
Sequence of 5-hydroxytryptamine receptor 5A (Homo sapiens) (P47898 whole entry): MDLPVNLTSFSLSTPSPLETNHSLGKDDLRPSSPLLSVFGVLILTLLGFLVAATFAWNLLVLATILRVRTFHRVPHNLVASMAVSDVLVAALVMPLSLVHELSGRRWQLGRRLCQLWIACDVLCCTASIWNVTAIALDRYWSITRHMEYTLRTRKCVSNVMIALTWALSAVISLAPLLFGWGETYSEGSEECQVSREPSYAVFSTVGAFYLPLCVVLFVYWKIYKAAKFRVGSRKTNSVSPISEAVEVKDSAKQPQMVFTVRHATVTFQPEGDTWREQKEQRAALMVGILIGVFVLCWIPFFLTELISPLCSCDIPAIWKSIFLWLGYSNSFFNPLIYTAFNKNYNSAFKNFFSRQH

[10] = molecular target: T3, Bromodomain-containing protein 3; assay: BET mutant TR-FRETassay (BRD3 BD1)
[11] = molecular target: D(3) dopamine receptor (Homo sapiens) (UniProt P35462); details: Compound concentration 10.0 uM
[12] = molecular target: Histamine H2 receptor (Homo sapiens) (UniProt P25021); details: Compound concentration 10.0 uM
Sequence of Histamine H2 receptor (Homo sapiens) (P25021 whole entry): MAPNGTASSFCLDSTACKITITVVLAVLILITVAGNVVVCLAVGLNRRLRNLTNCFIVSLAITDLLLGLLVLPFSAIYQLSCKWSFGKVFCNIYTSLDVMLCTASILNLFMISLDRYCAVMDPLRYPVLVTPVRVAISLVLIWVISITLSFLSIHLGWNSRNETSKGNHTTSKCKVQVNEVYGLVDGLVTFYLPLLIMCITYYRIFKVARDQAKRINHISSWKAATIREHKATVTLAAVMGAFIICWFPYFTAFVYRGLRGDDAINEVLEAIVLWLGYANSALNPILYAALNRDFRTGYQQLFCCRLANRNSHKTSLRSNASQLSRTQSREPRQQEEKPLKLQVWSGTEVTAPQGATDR

[13] = molecular target: Sodium-dependent noradrenaline transporter (Homo sapiens) (UniProt P23975); details: Compound concentration 10.0 uM
[14] = molecular target: 5-hydroxytryptamine receptor 3A (Homo sapiens) (UniProt P46098); details: Compound concentration 10.0 uM
[15] = molecular target: 5-hydroxytryptamine receptor 1A (Homo sapiens) (UniProt P08908); details: Compound concentration 10.0 uM
[16] = molecular target: Sodium-dependent dopamine transporter (Homo sapiens) (UniProt Q01959); details: Compound concentration 10.0 uM
Rattus norvegicus = organism: Rattus norvegicus; details: Compound concentration 10.0 uM
[17] = molecular target: Muscarinic acetylcholine receptor M4 (Homo sapiens) (UniProt P08173); details: Compound concentration 10.0 uM
[18] = molecular target: Alpha-2A adrenergic receptor (Homo sapiens) (UniProt P08913); details: Compound concentration 10.0 uM
Sequence of Alpha-2A adrenergic receptor (Homo sapiens) (P08913 whole entry): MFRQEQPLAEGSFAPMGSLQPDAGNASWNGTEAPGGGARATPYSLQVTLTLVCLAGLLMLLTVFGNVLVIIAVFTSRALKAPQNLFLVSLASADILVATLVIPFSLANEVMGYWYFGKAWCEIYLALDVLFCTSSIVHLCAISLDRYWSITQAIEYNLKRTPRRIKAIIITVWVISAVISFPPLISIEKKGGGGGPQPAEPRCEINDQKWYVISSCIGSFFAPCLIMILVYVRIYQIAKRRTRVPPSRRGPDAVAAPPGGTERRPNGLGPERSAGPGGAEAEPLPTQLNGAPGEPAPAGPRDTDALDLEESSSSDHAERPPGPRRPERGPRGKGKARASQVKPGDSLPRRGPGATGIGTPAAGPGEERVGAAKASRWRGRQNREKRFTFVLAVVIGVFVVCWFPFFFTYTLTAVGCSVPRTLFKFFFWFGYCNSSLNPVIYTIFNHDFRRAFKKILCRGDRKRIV

[19] = molecular target: T4, Bromodomain-containing protein 2 (Homo sapiens, UniProt P25440); assay: BET mutant TR-FRET assay (BRD2 BD2)
T4 sequence (P25440 whole entry, looked up, change not shown): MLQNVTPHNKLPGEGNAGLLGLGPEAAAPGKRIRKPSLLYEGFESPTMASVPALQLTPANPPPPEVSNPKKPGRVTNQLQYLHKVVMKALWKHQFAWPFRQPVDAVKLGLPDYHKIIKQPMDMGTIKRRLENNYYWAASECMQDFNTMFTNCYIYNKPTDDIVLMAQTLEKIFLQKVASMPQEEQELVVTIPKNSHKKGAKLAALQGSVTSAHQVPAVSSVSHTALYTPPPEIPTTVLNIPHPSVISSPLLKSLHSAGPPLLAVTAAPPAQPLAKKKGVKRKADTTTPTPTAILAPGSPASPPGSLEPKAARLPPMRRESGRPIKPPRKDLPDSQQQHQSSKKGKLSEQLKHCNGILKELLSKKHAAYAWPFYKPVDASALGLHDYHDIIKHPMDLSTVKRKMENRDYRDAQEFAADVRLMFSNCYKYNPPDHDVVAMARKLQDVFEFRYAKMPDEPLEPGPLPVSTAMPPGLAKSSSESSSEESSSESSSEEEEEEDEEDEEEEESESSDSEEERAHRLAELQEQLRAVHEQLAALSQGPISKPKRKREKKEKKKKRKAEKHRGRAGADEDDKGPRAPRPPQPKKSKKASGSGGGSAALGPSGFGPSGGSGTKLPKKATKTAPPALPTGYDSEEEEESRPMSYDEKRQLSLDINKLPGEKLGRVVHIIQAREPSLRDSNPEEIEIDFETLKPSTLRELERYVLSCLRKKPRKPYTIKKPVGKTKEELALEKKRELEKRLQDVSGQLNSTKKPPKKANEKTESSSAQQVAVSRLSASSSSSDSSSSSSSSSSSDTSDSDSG

[20] = molecular target: Sodium-dependent serotonin transporter (Homo sapiens) (UniProt P31645); details: Compound concentration 10.0 uM
[21] = molecular target: Alpha-2B adrenergic receptor (Homo sapiens) (UniProt P18089); details: Compound concentration 10.0 uM
[22] = molecular target: Histamine H1 receptor (Homo sapiens) (UniProt P35367); details: Compound concentration 10.0 uM
[23] = molecular target: 5-hydroxytryptamine receptor 2C (Homo sapiens) (UniProt P28335); details: Compound concentration 10.0 uM
[24] = molecular target: 5-hydroxytryptamine receptor 2A (Homo sapiens) (UniProt P28223); details: Compound concentration 10.0 uM
[25] = molecular target: Muscarinic acetylcholine receptor M2 (Homo sapiens) (UniProt P08172); details: Compound concentration 10.0 uM
[26] = molecular target: Alpha-1B adrenergic receptor (Homo sapiens) (UniProt P35368); details: Compound concentration 10.0 uM
[27] = molecular target: Alpha-1D adrenergic receptor (Homo sapiens) (UniProt P25100); details: Compound concentration 10.0 uM
[28] = molecular target: 5-hydroxytryptamine receptor 1D (Homo sapiens) (UniProt P28221); details: Compound concentration 10.0 uM
[29] = molecular target: Histamine H3 receptor (Homo sapiens) (UniProt Q9Y5N1); details: Compound concentration 10.0 uM
Sequence of Histamine H3 receptor (Homo sapiens) (Q9Y5N1 whole entry): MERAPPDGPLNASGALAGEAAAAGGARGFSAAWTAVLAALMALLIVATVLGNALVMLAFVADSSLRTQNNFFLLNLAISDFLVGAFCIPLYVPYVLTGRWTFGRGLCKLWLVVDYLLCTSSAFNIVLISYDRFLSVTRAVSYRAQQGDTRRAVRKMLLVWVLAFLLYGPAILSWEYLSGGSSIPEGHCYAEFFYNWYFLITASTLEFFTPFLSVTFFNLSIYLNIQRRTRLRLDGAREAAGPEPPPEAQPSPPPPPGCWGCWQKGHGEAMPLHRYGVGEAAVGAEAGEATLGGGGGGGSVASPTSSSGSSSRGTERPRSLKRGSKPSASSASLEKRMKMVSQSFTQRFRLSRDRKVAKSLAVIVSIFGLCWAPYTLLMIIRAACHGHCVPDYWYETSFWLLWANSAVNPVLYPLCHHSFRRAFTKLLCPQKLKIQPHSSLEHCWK

[30] = molecular target: D(4) dopamine receptor (Homo sapiens) (UniProt P21917); details: Compound concentration 10.0 uM
[31] = molecular target: Alpha-1A adrenergic receptor (Homo sapiens) (UniProt P35348); details: Compound concentration 10.0 uM
Sequence of Alpha-1A adrenergic receptor (Homo sapiens) (P35348 whole entry): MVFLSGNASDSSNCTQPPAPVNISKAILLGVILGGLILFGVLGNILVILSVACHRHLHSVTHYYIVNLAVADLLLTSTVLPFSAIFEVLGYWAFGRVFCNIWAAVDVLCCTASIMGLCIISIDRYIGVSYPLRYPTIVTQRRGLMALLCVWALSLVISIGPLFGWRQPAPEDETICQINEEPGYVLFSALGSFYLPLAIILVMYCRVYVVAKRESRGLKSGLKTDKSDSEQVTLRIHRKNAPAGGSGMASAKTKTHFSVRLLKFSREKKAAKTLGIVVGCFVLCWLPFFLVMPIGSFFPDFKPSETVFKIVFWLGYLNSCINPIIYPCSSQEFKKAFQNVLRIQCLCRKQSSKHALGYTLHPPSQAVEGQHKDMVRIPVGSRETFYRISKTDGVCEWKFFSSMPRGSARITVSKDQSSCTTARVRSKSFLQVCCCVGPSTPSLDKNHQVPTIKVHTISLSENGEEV

[32] = molecular target: T1, GABA-A receptor; anion channel (Rattus norvegicus); details: Compound concentration 10.0 uM; remark: listed apart in the source
[33] = molecular target: Muscarinic acetylcholine receptor M3 (Homo sapiens) (UniProt P20309); details: Compound concentration 10.0 uM
[34] = molecular target: 5-hydroxytryptamine receptor 1E (Homo sapiens) (UniProt P28566); details: Compound concentration 10.0 uM
[35] = molecular target: Muscarinic acetylcholine receptor M5 (Homo sapiens) (UniProt P08912); details: Compound concentration 10.0 uM
[36] = molecular target: Sigma intracellular receptor 2 (Homo sapiens) (UniProt Q5BJF2); details: Compound concentration 10.0 uM
[37] = molecular target: Muscarinic acetylcholine receptor M1 (Homo sapiens) (UniProt P11229); details: Compound concentration 10.0 uM
[38] = molecular target: D(1A) dopamine receptor (Homo sapiens) (UniProt P21728); details: Compound concentration 10.0 uM
Sequence of D(1A) dopamine receptor (Homo sapiens) (P21728 whole entry): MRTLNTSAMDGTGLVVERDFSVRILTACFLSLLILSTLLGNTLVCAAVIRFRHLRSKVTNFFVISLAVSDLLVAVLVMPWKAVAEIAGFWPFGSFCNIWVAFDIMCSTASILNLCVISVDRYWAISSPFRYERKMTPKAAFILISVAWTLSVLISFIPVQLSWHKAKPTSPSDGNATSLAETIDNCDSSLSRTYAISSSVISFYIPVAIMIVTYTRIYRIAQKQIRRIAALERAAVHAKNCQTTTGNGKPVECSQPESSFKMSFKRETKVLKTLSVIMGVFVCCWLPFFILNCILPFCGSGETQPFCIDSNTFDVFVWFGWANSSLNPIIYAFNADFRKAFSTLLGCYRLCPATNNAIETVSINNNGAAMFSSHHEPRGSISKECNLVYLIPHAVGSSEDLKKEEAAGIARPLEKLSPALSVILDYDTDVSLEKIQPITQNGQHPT

[39] = molecular target: Alpha-2C adrenergic receptor (Homo sapiens) (UniProt P18825); details: Compound concentration 10.0 uM
[40] = molecular target: T4, Bromodomain-containing protein 2; assay: BET mutant TR-FRET assay (BRD2 BD1)
[41] = molecular target: GABA-A receptor; anion channel; assay: GPCRScan assay: inhibition of GABAA/BZP; format: protein-complex assay, Rattus norvegicus; design: radioligand conc. used [nm] 0.6 – 4.0, parental cells brain tissue
[42] = molecular target: D(1B) dopamine receptor (Homo sapiens) (UniProt P21918); details: Compound concentration 10.0 uM
Sequence of D(1B) dopamine receptor (Homo sapiens) (P21918 whole entry): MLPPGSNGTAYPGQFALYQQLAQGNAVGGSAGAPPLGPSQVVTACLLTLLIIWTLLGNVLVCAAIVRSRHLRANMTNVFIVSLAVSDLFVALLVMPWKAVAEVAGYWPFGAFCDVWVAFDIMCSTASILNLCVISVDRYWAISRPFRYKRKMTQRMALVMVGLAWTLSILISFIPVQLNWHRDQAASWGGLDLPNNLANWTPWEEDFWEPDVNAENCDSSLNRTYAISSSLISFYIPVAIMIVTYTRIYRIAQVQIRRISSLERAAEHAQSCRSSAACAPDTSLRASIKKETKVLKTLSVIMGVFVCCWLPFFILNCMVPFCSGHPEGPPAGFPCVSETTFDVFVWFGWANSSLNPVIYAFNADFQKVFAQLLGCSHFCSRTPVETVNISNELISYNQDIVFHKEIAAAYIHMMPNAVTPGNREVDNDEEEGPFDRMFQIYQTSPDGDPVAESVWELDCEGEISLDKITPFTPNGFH

Cc1cc2c(-c3ccco3)cnc(N[C@H]3CCN(C)C[C@@H]3C(=O)NC3CCCCC3)c2[nH]c1=O [GSK791]
4.8: pIC50 [19]
inactive: inhibition [1] 14.9% | inhibition [2] 4.04% | inhibition [4] 35.1% | inhibition [5] 1.93% | inhibition [7] 2.98% | inhibition [9] 10.1% | inhibition [11] 15.5% | inhibition [12] 21.6% | inhibition [13] 32.4% | inhibition [14] 1.04% | inhibition [15] 16.9% | inhibition [16] 8.66% | inhibition (Rattus norvegicus) -8.18% | inhibition [17] -3% | inhibition [18] 9.8% | inhibition [20] 13.8% | inhibition [21] 28.5% | inhibition [22] 11.7% | inhibition [23] 3.86% | inhibition [24] 2.71% | inhibition [25] 5.25% | inhibition [26] 1.98% | inhibition [27] 7.87% | inhibition [28] 33.1% | inhibition [29] -2.09% | inhibition [30] 17.4% | inhibition [31] 10.1% | inhibition [33] 28.9% | inhibition [34] 9.79% | inhibition [35] 7.44% | inhibition [36] 44.1% | inhibition [37] 12% | inhibition [38] 21.2% | inhibition [39] 10.8% | inhibition [42] 35.4%
5.4: pIC50 [10]
2540 nM: Ki [41]
4.7: pIC50 [6]
5.1: pIC50 [3]
5.6: pIC50 [40]
5.2: pIC50 [8]
active: inhibition [32] 86.3%
